From PMC12044326 (Clinical Pharmacology in Drug Development, 2025)
Where two headings read alike, the source gives them in different places.

Key:
[1] = cited from earlier work
OATP1B3 [2] = target: T1, OATP1B3 (Homo sapiens, UniProt Q9NPD5)
T1 sequence (Q9NPD5 1-702): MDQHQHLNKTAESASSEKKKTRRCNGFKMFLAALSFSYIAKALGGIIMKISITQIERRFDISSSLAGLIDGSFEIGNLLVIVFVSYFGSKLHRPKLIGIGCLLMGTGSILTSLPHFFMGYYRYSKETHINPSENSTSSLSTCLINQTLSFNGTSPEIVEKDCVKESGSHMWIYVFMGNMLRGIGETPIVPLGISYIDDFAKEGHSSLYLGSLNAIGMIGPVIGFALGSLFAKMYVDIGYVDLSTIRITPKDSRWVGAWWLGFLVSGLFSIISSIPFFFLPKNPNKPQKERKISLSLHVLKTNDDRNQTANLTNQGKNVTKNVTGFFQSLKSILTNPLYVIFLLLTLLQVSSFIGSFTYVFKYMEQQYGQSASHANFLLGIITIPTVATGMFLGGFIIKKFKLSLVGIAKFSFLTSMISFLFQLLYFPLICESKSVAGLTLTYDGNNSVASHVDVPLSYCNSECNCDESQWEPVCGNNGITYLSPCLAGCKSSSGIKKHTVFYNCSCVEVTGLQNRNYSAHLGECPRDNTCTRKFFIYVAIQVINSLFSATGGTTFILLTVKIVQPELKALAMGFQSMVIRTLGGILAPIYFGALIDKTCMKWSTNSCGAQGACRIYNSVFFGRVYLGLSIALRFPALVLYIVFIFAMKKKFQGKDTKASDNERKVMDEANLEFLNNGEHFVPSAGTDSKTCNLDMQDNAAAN

physchem = format: physicochemical
Description: […]. […] […]. […] […]

CYP1A2 = settings: hepatocytes
Description: (§1) respectively; XenoTech) were treated once daily for 3 consecutive days and cultured according
(§2) to previously described methods.2-4 Each culture well was treated with supplemented modified Chee's medium (0.2 mL) containing 0.1% v/v d imethylsulfoxide (DM SO ; vehicle control),
(§3) μmol/L) or 1 of 3 known human CYP enzyme inducers (omeprazole 50 μmol/L, phenobarbital
Cultures were visualized with a
(§4) representative well from each treatment group was photographed with a PAXcam 5 (MIS, Inc.
(§5) Villa Park, IL, USA) digital camera to document morphological integrity.
(§6) β-mercaptoethanol (1:100), and the cell lysates were stored at −80°C. For each hepatocyte preparation, media from 3 wells per treatment group were aspirated, and 250 μL buf f er RLT was added to each well. The cell lysates were mixed by shaking (10 minutes at 800 rpm) and total RNA was isolated with a MagMAX-96 (Ambion/ Thermo Fisher Scientific) for Microarrays Kit using the RNeasy Mini Kit (Qiagen Inc., Germantown, MD, USA). The analysis of RNA integrity was carried out with the RNA 6000 Nano Assay Kit on an Agilent 2100 Bioanalyzer (Agilent Technologies, Inc., Santa Clara, CA, USA). […]
(§7) prepared samples were stored at −20°C prior to analysis by quantitative real-time (qRT)- […]

CYP2C9 = CYP2C9 (Homo sapiens, UniProt P11712); experiment: Reversible CYP inhibition in human liver microsomes
Sequence of CYP2C9 (P11712 whole entry): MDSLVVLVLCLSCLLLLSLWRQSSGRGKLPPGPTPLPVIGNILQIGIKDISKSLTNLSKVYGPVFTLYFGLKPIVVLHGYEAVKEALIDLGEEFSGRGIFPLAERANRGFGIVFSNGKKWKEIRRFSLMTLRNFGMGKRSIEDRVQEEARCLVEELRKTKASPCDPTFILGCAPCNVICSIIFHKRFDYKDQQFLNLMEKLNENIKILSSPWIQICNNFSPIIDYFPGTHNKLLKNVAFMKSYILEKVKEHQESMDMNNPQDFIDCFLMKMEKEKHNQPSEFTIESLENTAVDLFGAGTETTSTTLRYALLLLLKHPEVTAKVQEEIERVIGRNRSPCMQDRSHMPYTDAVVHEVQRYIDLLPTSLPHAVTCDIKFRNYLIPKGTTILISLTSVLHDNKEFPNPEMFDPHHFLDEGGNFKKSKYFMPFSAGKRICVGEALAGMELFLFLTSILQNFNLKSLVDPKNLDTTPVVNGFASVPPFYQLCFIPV

UGT1A9 = target: T2, UGT1A9 (Homo sapiens, UniProt O60656); design: method as in PMID 38123352; settings: cited from earlier work
T2 sequence (O60656 26-530): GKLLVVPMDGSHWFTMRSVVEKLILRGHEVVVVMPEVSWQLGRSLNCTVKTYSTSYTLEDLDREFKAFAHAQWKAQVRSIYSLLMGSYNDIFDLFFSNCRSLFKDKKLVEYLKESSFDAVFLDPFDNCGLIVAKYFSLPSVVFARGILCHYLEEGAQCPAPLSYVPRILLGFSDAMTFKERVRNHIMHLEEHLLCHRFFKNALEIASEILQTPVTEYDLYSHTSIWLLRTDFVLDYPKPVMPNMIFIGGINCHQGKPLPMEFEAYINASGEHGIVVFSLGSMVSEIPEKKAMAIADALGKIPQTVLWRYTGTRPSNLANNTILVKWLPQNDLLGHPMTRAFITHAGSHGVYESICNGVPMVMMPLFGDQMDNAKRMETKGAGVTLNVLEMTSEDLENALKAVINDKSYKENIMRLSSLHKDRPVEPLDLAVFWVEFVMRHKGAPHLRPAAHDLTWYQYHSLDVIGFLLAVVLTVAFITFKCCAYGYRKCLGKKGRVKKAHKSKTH

[3] = ref 6 of supplement, cited from earlier work; for AUC0-inf observed / Cmax observed: geometric mean; for tmax observed: median
OATP1B3 [4] = target: T1, OATP1B3; remark: listed apart in the source
in vitro = settings: human, Caco-2
Description: Caco-2 cells were obtained from American Type Culture Collection. Prior to the experiments,
the cells were seeded on 55 cm2 bottom culture dishes (Corning). The cells were cultured at
37°C in a humidified CO2 (5%) incubator and routinely passaged about once a week. Caco-2
cultured in the medium at 37°C in a humidified CO2 (5%) incubator for 23 days to prepare cell
The medium was changed 4 days after seeding and then changed every 2 or 3 days
thereafter. Before the experiment, the integrity of the Caco-2 cell monolayer was checked by
measuring the trans-epithelial electrical resistance (TEER) value. The TEER values of cell
In the transport experiments, the medium of top side of the cells (apical side) and basal
side of the cells (basal side) were replaced with the DMSO-HBSS solution, the inhibitor-HBSS
control), or the test solutions (digoxin and mannitol as substrates). The volumes of the replaced
solutions were 300 μL for the apical side and 1 mL for the basal side. The DMSO-HBSS […]
of the solution in each basal side (receiver side) were collected and measured for the
radioactivity using an LSC. […]
collected and measured for the radioactivity using an LSC. […]
side (receiver side) were collected and measured for the radioactivity using an LSC. […]
in each apical side and each basal side (donor side) were collected and measured for the
radioactivity using an LSC.

human hepatocytes = settings: both, 10 μmol/L
CYP2C8 = target: T3, CYP2C8 (Homo sapiens, UniProt P10632); experiment: Reversible CYP inhibition in human liver microsomes
T3 sequence (P10632 1-490): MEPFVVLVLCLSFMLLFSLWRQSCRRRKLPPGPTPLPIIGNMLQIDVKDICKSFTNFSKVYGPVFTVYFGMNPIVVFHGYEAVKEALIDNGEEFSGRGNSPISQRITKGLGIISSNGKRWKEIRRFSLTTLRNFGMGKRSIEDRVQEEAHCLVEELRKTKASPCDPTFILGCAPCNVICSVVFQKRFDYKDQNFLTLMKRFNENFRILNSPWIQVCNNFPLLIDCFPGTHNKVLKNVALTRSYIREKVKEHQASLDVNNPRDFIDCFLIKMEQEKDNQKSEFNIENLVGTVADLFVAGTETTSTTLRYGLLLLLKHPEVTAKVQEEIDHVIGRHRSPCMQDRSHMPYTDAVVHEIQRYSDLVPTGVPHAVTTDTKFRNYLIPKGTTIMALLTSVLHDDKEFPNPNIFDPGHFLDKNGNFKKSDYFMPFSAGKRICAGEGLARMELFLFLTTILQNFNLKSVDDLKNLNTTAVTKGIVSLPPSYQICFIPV

CYP2B6 = settings: hepatocytes
Description: as §1, §2, §3
Cultures were visualized with a
as §4, §5, §6, §7

[5] = 300 mg single oral dose, geometric mean, clinical ADME study, ref 5 of supplement
[6] = Fig 2C, soticlestat 300 mg alone or with mefenamic acid, n = 14

**Q.** Which results are given for O=C(c1cccnc1-c1ccncc1)N1CCC(O)(Cc2ccccc2)CC1 [Soticlestat]?
**A.** time‐ or metabolism‐dependent inhibition (major CYP enzymes): did not exhibit time‐ or metabolism‐dependent inhibition; AUC0-inf observed [1, 5]: 1294 ng·h/mL; Cmax observed [1, 5]: 995 ng/mL; tmax observed ([1]; 300 mg single oral dose, median, clinical ADME study, ref 5 of supplement): 31.8 min; CLIV (mean IV clearance) ([1]; IV microdose [14C] soticlestat 50 µg with oral 300 mg): 28.7 L/h; CYP contribution to clearance ([1]; human radiolabeled ADME study): 9.5%; cleared by UGT metabolism ([1]; human radiolabeled ADME study): 90.5%; CLR (mean renal clearance) ([1]; single oral dose [14C] soticlestat 300 mg, healthy volunteers): 0.22 L/h; substrate for OATP1B3 (OATP1B3 [2]): not a substrate; logP (physchem): 1.4; pKa (physchem): 3.37; Compound type (physchem; PBPK input): Monoprotic base; induction of CYP1A2 (CYP1A2): nor did soticlestat induce; Ki (CYP2C9): 15.6 µM; fumic (CYP2C9; human): 0.88; inhibition of CYP2C9 (CYP2C9; microsomes): low double‐digit micromolar values; AUC0-inf observed (UGT1A9; [6]): 1526 ng·h/mL; Cmax observed (UGT1A9; [6]): 1414 ng/mL; effect on soticlestat exposure (UGT1A9; with mefenamic acid): did not affect soticlestat exposure; AUC0-inf observed ([3]; 15 mg single oral dose): 22.6 ng·h/mL; Cmax observed ([3]; 15 mg single oral dose): 33.5 ng/mL; tmax observed ([3]; 15 mg single oral dose): 15 min; AUC0-inf observed ([3]; 50 mg single oral dose): 134 ng·h/mL; Cmax observed ([3]; 50 mg single oral dose): 167 ng/mL; tmax observed ([3]; 50 mg single oral dose): 15 min; AUC0-inf observed ([3]; 200 mg single oral dose): 591 ng·h/mL; Cmax observed ([3]; 200 mg single oral dose): 527 ng/mL; tmax observed ([3]; 200 mg single oral dose): 15 min; AUC0-inf observed ([3]; 600 mg single oral dose): 4937 ng·h/mL; Cmax observed ([3]; 600 mg single oral dose): 3847 ng/mL; tmax observed ([3]; 600 mg single oral dose): 30 min; AUC0-inf observed ([3]; 900 mg single oral dose): 7454 ng·h/mL; Cmax observed ([3]; 900 mg single oral dose): 4814 ng/mL; AUC0-inf observed ([3]; 1350 mg single oral dose): 12,699 h.ng/mL; Cmax observed ([3]; 1350 mg single oral dose): 7672 ng/mL; tmax observed ([3]; 1350 mg single oral dose): 48 min; inhibition of OATP1B3 (OATP1B3 [4]): did not demonstrate clinically relevant inhibition; Papp (in vitro): 23.4 ×10⁻⁶ cm/s; metabolized by glucuronidation (human hepatocytes): ~66%; oxidation via CYP3A (human hepatocytes): ~33%; Ki (CYP2C8): 14.5 µM; fumic (CYP2C8; human): 0.98; inhibition of CYP2C8 (CYP2C8; microsomes): low double‐digit micromolar values; induction of CYP2B6 (CYP2B6): nor did soticlestat induce
